Assay results reported in US20230082968A1, “EXOGENOUS NITRIC OXIDE FOR IMPROVED SUSCEPTIBILITY AND LOWERED ANTIBIOTIC RESISTANCE IN RESISTANT RESPIRATORY BACTERIA” (The University of North Carolina at Chapel Hill, priority 2020, published 2023).
≈ marks a conversion by molar mass, not a printed value. Entries after “also recorded” stand apart in the source; their conditions may differ.

Tests used:
PAK biofilm = test: Biofilm pretreatment with nitric oxide; type: cell-based, Pseudomonas aeruginosa
Description: (§1) Bacteria were cultured to a concentration of 10^8 CFU/mL in TSB and diluted to 10^6 CFU/mL in 200 µL TSB in a 96 well plate. Plates were incubated with shaking for 3 days until a non-surface attached viscous aggregate formed that was easily separated from growth medium. Biofilms (100 µL) were removed, gently injected into PBS (200 µL) to remove loosely adhered planktonic cells, and added to a sterile 96 well plate. To the wells, PBS or test agent dissolved in PBS (100 µL) was added and incubated with shaking for 24 h. The biofilm (100 µL) was removed from the well plate, added to 900 µL sterile MilliQ water, and disrupted with pipetting and vortexing. Disrupted biofilms were serially diluted and spiral plated on TSA. Viability was assessed with colony counting. The minimum biofilm eradication concentration (MBEC) was defined as the lowest concentration of test agent required to reduce viability by 5-log (i.e., 10^8 to 10^3 CFU/mL).
(§2) The biofilm was then removed from its 96 well plate, added to a new 96 well plate containing tobramycin dissolved in PBS (100 µL), and incubated for 20 h. The biofilm was disrupted in 900 µL sterile MilliQ water with pipetting and vortexing, serially diluted, and spiral plated on TSA. Viability was assessed with colony counting.

ATCC BCC = test: Nitric oxide pretreatment with planktonic bacteria; type: cell-based, Burkholderia cepacia complex
Description: (§3) After exposure, wells were serially diluted in sterile MilliQ water and spiral plated on TSA. Viability was assessed by colony counting.

PAK [1] = test: Nitric oxide pretreatment with planktonic bacteria; type: cell-based, Pseudomonas aeruginosa; details: antibiotic 2 µg/mL, NO-pretreatment 25% MIC 4 h
Description: as §3

AR 239 biofilm = test: Biofilm pretreatment with nitric oxide; type: cell-based, P. aeruginosa; details: tobramycin 5000 µg/mL, NO-pretreatment 4 h
Description: as §1, §2

AR 229 biofilm = test: Biofilm pretreatment with nitric oxide; type: cell-based, P. aeruginosa; details: tobramycin 2 µg/mL, NO-pretreatment 4 h
Description: as §1, §2

AR 237 biofilm = test: Biofilm pretreatment with nitric oxide; type: cell-based, P. aeruginosa; details: tobramycin 1 µg/mL, NO-pretreatment 4 h
Description: as §1, §2

AR 230 biofilm = test: Biofilm pretreatment with nitric oxide; type: cell-based, P. aeruginosa; details: tobramycin 64 µg/mL, NO-pretreatment 4 h
Description: as §1, §2

PAK [2] = test: Serial passaging resistance assay; type: cell-based, Pseudomonas aeruginosa
Description: (§4) Bacteria at a final concentration of 10^6 CFU/mL in TSB were incubated with serial dilutions of COS/NO and/or tobramycin for 24 h. Growth was assessed by measuring absorbance at 600 nm. The wells that had the highest concentration of test agent and an OD600 corresponding to more than 10^8 CFU/mL were diluted to 10^6 cfu/mL in TSB and incubated with fresh solutions of COS/NO or tobramycin for 24 h. A single passage was defined as one exposure, incubation, and subsequent dilution. Bacteria were passaged for up to 70 days.

ATCC MRSA [3] = test: Nitric oxide pretreatment with planktonic bacteria; type: cell-based, Methicillin-resistant S. aureus
Description: as §3

PA 229 = test: 24 h combination time kill assay; type: cell-based, P. aeruginosa; details: PA 229, COS/NO and tobramycin, 24 h time kill
Description: (§5) Time-kill assays were performed over 24 h in order to quantitatively probe the effect of each antibiotic-NO combination as a function of time [Belley, A. et al. Assessment by time-kill methodology of the synergistic effects of oritavancin in combination with other antimicrobial agents against Staphylococcus aureus. Antimicrob. Agents Chemother. 52, 3820-3822 (2008)]. […] Aliquots were sampled at 0, 3, 6, and 24 h, serially diluted, and logarithmically plated on TSA plates using an Eddy Jet spiral plater (IUL; Farmingdale, NY). Bacterial viability was assessed by counting the number of colonies formed with a Flash & Go colony counter (IUL; Farmingdale, NY).

PA 239 = test: 24 h combination time kill assay; type: cell-based, P. aeruginosa; details: PA 239 (tobramycin-resistant), COS/NO and tobramycin, 24 h time kill
Description: as §5

PA 237 = test: 24 h combination time kill assay; type: cell-based, P. aeruginosa; details: PA 237, COS/NO and tobramycin, 24 h time kill
Description: as §5

PA 230 = test: 24 h combination time kill assay; type: cell-based, P. aeruginosa; details: PA 230 (tobramycin-resistant), COS/NO and tobramycin, 24 h time kill
Description: as §5

ATCC S.aureus = test: Nitric oxide pretreatment with planktonic bacteria; type: cell-based, Staphylococcus aureus
Description: as §3

AR 239 = test: Nitric oxide pretreatment with planktonic bacteria; type: cell-based, P. aeruginosa; details: AR 239, antibiotic 2000 µg/mL, NO-pretreatment 25% MIC 4 h
Description: as §3

AR 230 = test: Nitric oxide pretreatment with planktonic bacteria; type: cell-based, P. aeruginosa; details: AR 230, antibiotic 2000 µg/mL, NO-pretreatment 25% MIC 4 h
Description: as §3

AR 237 = test: Nitric oxide pretreatment with planktonic bacteria; type: cell-based, P. aeruginosa; details: AR 237, antibiotic 0.625 µg/mL, NO-pretreatment 25% MIC 4 h
Description: as §3

ATCC MRSA [4] = test: Serial passaging resistance assay; type: cell-based, Methicillin-resistant S. aureus
Description: as §4

P. aeruginosa biofilms = test: Biofilm pretreatment with nitric oxide, all tested biofilms; type: cell-based; details: all tested P. aeruginosa biofilms incl. tobramycin-resistant strains, COS/NO at 25% MBEC for 4 h
Description: as §1, §2

[5] = tobramycin 16 µg/mL, NO-pretreatment 4 h
[6] = antibiotic 4000 µg/mL, NO-pretreatment 25% MIC 4 h

NC[C@H]1O[C@H](O[C@H]2[C@H](O)[C@@H](O[C@H]3O[C@H](CO)[C@@H](O)[C@H](N)[C@H]3O)[C@H](N)C[C@@H]2N)[C@H](N)C[C@@H]1O [Tobramycin]
changes in tobramycin-susceptibility of biofilm (PAK biofilm; NO-pretreatment lasting less than 4 h): Minimal changes
Classification (PAK biofilm; [5]): Synergistic
Log Difference in biofilm viability with vs without NO-pretreatment (PAK biofilm; [5]): 4.71 log
Log Difference in bacteria viability with vs without NO-pretreatment (ATCC BCC; ATCC BCC, antibiotic […], NO-pretreatment 25% MIC 4 h): 5.23 log
tobramycin-susceptibility with the addition of NO (ATCC BCC; B. cepacia complex, NO-pretreatment): significant improvement
Classification (PAK [1]): Synergistic
Log Difference in bacteria viability with vs without NO-pretreatment (PAK [1]): 3.00 log
Classification (AR 239 biofilm): Synergistic
Log Difference in biofilm viability with vs without NO-pretreatment (AR 239 biofilm): 4.90 log
Classification (AR 229 biofilm): Synergistic
Log Difference in biofilm viability with vs without NO-pretreatment (AR 229 biofilm): 4.39 log
Classification (AR 237 biofilm): Synergistic
Log Difference in biofilm viability with vs without NO-pretreatment (AR 237 biofilm): 4.85 log
Classification (AR 230 biofilm): Synergistic
Log Difference in biofilm viability with vs without NO-pretreatment (AR 230 biofilm): 5.15 log
development of tobramycin-resistance (PAK [2]; P. aeruginosa, concomitant delivery with COS/NO at 25% of its MIC): slowing or prevention
change of tobramycin MIC on parallel exposures (PAK [2]; P. aeruginosa, tobramycin alone, serial passages): increases
MICn (PAK [2]; PAK, after n = 10 passages): 16 µg/mL
MIC (PAK [2]; Pseudomonas aeruginosa, read-out: MIC0): 2 µg/mL (≈ 4.28 µM)
tobramycin-susceptibility with the addition of NO (ATCC MRSA [3]; NO-pretreatment): significant improvement
Classification (ATCC MRSA [3]; [6]): Synergistic
Log Difference in bacteria viability with vs without NO-pretreatment (ATCC MRSA [3]; [6]): 4.09 log
interaction of tobramycin-NO combination (PA 229): synergistically
interaction of tobramycin-NO combination (PA 239): indifferent
interaction of tobramycin-NO combination (PA 237): synergistically
interaction of tobramycin-NO combination (PA 230): indifferent
tobramycin-susceptibility with the addition of NO (ATCC S.aureus; ATCC S. aureus, NO-pretreatment): significant improvement
Log Difference in bacteria viability with vs without NO-pretreatment (ATCC S.aureus; ATCC S.aureus, antibiotic […], NO-pretreatment 25% MIC 4 h): 4.88 log
Classification (AR 239): Synergistic
Log Difference in bacteria viability with vs without NO-pretreatment (AR 239): 2.27 log
Classification (AR 230): Synergistic
Log Difference in bacteria viability with vs without NO-pretreatment (AR 230): 3.54 log
Classification (AR 237): Synergistic
Log Difference in bacteria viability with vs without NO-pretreatment (AR 237): 3.70 log
MICn (ATCC MRSA [4]; ATCC MRSA, after n = 10 passages): 16000 µg/mL
development of tobramycin-resistance (ATCC MRSA [4]; MRSA, concomitant delivery with COS/NO at 25% of its MIC): slowing or prevention
change of tobramycin MIC on parallel exposures (ATCC MRSA [4]; MRSA, tobramycin alone, serial passages): increases
MIC (ATCC MRSA [4]; Staphylococcus aureus, MRSA, read-out: MIC0): 2000 µg/mL (≈ 4280 µM)
tobramycin susceptibility of biofilms after NO-pretreatment (P. aeruginosa biofilms): significantly more susceptible; also recorded: improved
